Patent publication US7439245B2, “Compounds” (Glaxo Group Limited, priority 2003, dated 2008)

Target: T1, human cloned 5-HT6 receptors (Homo sapiens, UniProt P50406)
T1 construct: expressed in transfected cells
Experiment: 5-HT6 receptor affinity (procedures outlined in WO98/27081)
Format: binding
Conditions: read-out: pKi values at human cloned 5-HT6 receptors (converted)
Text: Compounds can be tested following the procedures outlined in WO98/27081.

T1 sequence (P50406 whole entry): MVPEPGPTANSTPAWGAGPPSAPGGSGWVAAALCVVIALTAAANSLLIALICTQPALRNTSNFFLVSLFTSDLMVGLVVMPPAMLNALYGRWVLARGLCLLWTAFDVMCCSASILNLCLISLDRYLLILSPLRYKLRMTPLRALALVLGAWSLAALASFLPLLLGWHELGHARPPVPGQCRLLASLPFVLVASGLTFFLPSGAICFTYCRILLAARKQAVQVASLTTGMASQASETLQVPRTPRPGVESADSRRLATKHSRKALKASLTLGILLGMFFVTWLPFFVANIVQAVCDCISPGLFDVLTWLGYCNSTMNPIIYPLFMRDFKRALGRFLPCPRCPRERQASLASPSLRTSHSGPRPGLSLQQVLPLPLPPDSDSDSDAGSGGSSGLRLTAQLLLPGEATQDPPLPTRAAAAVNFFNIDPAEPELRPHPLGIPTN

| Structure (SMILES) | Ki [nM] |
| --- | --- |
| O=S(=O)(c1ccccc1)c1cccc(N2CCNCC2)c1 [Example E1, 1-(3-Phenylsulfonyl-phenyl)piperazine] | < 10 |
| O=S(=O)(c1ccccc1)c1cccc(N2CCNCC2)c1Cl [Example E2, 1-(3-Phenylsulfonyl-2-chlorophenyl)piperazine] | < 10 |
